Test results taken from patent publication US20240246908A1 (ORION CORPORATION, priority 2021, published 2024).

Tested on: YAP-TEAD
Test: TEAD inhibition, Hippo Pathway TEAD Reporter MCF-7 luciferase assay
Assay type: cell-based
Conditions: Homo sapiens, MCF7, 24 h, Hippo Pathway TEAD Reporter MCF-7 cells, luciferase activity after 24 h; read-out: IC50 of the test compounds on YAP-TEAD inhibition (Group)
Method: TEAD inhibition was assayed using Hippo Pathway TEAD Reporter—MCF-7 cell line (BPS Bioscience, Catalog #: 60618) which contains firefly luciferase gene under the control of TEAD responsive elements. In the cell line, YAP1 remains in the nucleus inducing constitutive expression of luciferase reporter. Amount of expressed luciferase was detected using ONE-Glo Luciferase Assay System (Promega) and measuring plates with Enspire Multimode Plate Reader (PerkinElmer).
Hippo Pathway TEAD Reporter—MCF-7 cells were plated on white/clear Poly-D-Lysine coated 384 plates (Corning #356660) at the density of 8500 cells/well. Next day test compounds (11 concentrations with 4 replicates) and DMSO control (0.1%) were added to the plate. After 24 h cells were lysed and luciferase activity was measured. The half maximal inhibitory concentration (IC50) of the test compounds on YAP-TEAD inhibition was determined.

Row | IC50 [nM] | SMILES
1 | 50 to 300 | COc1c(F)cc(COc2cccc(F)c2)cc1NC(=O)C1CCC(=O)N1 (stereo not drawn) [Compound 36, N-(3-Fluoro-5-((3-fluorophenoxy)methyl)-2-methoxyphenyl)-5-oxopyrrolidine-2-carboxamide]
2 | 50 to 300 | CCN1C(=O)CCC1C(=O)Nc1cc(Oc2cccc(C(F)(F)F)c2)ccc1OC (stereo not drawn) [Compound 37, 1-Ethyl-N-(2-methoxy-5-(3-(trifluoromethyl)phenoxy)phenyl)-5-oxopyrrolidine-2-carboxamide]
3 | 301 to 2000 | CC(=O)N1C(=O)CCC1C(=O)Nc1cc(Oc2cccc(C(F)(F)F)c2)ccc1F (stereo not drawn) [Compound 40, 1-Acetyl-N-(2-fluoro-5-(3-(trifluoromethyl)phenoxy)phenyl)-5-oxopyrrolidine-2-carboxamide]
4 | 301 to 2000 | CN1C(=O)CCC1C(=O)Nc1cc(Oc2cccc(C(F)(F)F)c2)ccc1F (stereo not drawn) [Compound 41, N-(2-Fluoro-5-(3-(trifluoromethyl)phenoxy)phenyl)-1-methyl-5-oxopyrrolidine-2-carboxamide]
5 | 50 to 300 | COc1ccc(Oc2ccc(F)cc2F)cc1NC(=O)C1CCC(=O)N1 (stereo not drawn) [Compound 42, N-(5-(2,4-Difluorophenoxy)-2-methoxyphenyl)-5-oxopyrrolidine-2-carboxamide]
6 | 50 to 300 | COc1ccc(Oc2ccc(F)cc2F)cc1NC(=O)C1CCC(=O)N1C (stereo not drawn) [Compound 43, N-(5-(2,4-Difluorophenoxy)-2-methoxyphenyl)-1-methyl-5-oxopyrrolidine-2-carboxamide]
7 | < 50 | COc1ccc(Oc2ccc(C(F)(F)F)cc2)cc1NC(=O)C1CCC(=O)N1C(C)=O (stereo not drawn) [Compound 47, 1-Acetyl-N-(2-methoxy-5-(4-(trifluoromethyl)phenoxy)phenyl)-5-oxo-pyrrolidine-2-carboxamide]
8 | < 50 | COc1ccc(Oc2ccc(C(F)(F)F)cc2)cc1NC(=O)C1CCC(=O)N1C (stereo not drawn) [Compound 48, N-(2-Methoxy-5-(4-(trifluoromethyl)phenoxy)phenyl)-1-methyl-5-oxopyrrolidi-ne-2-carboxamide]
9 | 50 to 300 | O=C1CCC(C(=O)Nc2cc(COc3cccc(F)c3)cc3c2OCCO3)N1 (stereo not drawn) [Compound 57, N-(7-((3-Fluorophenoxy)methyl)-2,3-dihydrobenzo[b][1,4]dioxin-5-yl)-5-oxopyrrolidine-2-carboxamide]
10 | 50 to 300 | COc1ccc(Oc2ccc(F)c(F)c2)cc1NC(=O)C1CCC(=O)N1C (stereo not drawn) [Compound 60, N-(5-(3,4-Difluorophenoxy)-2-methoxyphenyl)-1-methyl-5-oxopyrrolidine-2-carboxamide]
11 | 301 to 2000 | COc1ccc(/C=C/C2CCOCC2)cc1NC(=O)C1CCC(=O)N1C (stereo not drawn) [Compound 64, (E)-N-(2-Methoxy-5-(2-(tetrahydro-2H-pyran-4-yl)vinyl)phenyl)-1-methyl-5-oxopyrrolidine-2-carboxamide]
12 | < 50 | CN1C(=O)CCC1C(=O)Nc1cc(Oc2ccc(C(F)(F)F)cc2)cc2c1OCCO2 (stereo not drawn) [Compound 67, 1-Methyl-5-oxo-N-(7-(4-(trifluoromethyl)phenoxy)-2,3-dihydrobenzo[b][1,4]-dioxin-5-yl)pyrrolidine-2-carboxamide]
13 | < 50 | CCN1C(=O)CCC1C(=O)Nc1cc(Oc2ccc(C(F)(F)F)cc2)ccc1OC (stereo not drawn) [Compound 68, 1-Ethyl-N-(2-methoxy-5-(4-(trifluoromethyl)phenoxy)phenyl)-5-oxopyrrolidine-2-carboxamide]
14 | < 50 | COc1ccc(Oc2ccc(C(F)(F)F)cc2)cc1NC(=O)[C@H]1CCC(=O)N1C [Compound 69, (R)—N-(2-Methoxy-5-(4-(trifluoromethyl)phenoxy)phenyl)-1-methyl-5-oxo-pyrrolidine-2-carboxamide]
15 | < 50 | COc1ccc(Oc2ccc(C(F)(F)F)cc2)cc1NC(=O)[C@@H]1CCC(=O)N1C [Compound 70, (S)—N-(2-Methoxy-5-(4-(trifluoromethyl)phenoxy)phenyl)-1-methyl-5-oxo-pyrrolidine-2-carboxamide]
16 | 50 to 300 | COc1ccc(Oc2ccc(C(F)(F)F)cc2)cc1NC(=O)C1CS(=O)(=O)N1C (stereo not drawn) [Compound 71, N-(2-Methoxy-5-(4-(trifluoromethyl)phenoxy)phenyl)-2-methyl-1,2-thiazeti-dine-3-carboxamide 1,1-dioxide]
17 | 301 to 2000 | COc1ccc(Oc2cccc(C(F)(F)F)c2)cc1NC(=O)C1CS(=O)(=O)N1C (stereo not drawn) [Compound 72, N-(2-Methoxy-5-(3-(trifluoromethyl)phenoxy)phenyl)-2-methyl-1,2-thiaze-tidine-3-carboxamide 1,1-dioxide]
18 | 50 to 300 | COc1cc(F)c(COc2cccc(F)c2)cc1NC(=O)C1CCC(=O)N1 (stereo not drawn) [Compound 73, N-(4-Fluoro-5-((3-fluorophenoxy)methyl)-2-methoxyphenyl)-5-oxopyrrolidine-2-carboxamide]

Continued, compound first:

Row | SMILES | IC50 [nM]
19 | COc1ccc(Oc2cccc(C(F)(F)F)c2)cc1NC(=O)C1CCC(=O)N1C(=O)C1CC1 (stereo not drawn) [Compound 38, 1-(Cyclopropanecarbonyl)-N-(2-methoxy-5-(3-(trifluoromethyl)phenoxy)-phenyl)-5-oxopyrrolidine-2-carboxamide] | 301 to 2000
20 | COc1cc(F)c(Oc2cccc(C(F)(F)F)c2)cc1NC(=O)C1CCC(=O)N1C(C)=O (stereo not drawn) [Compound 39, 1-Acetyl-N-(4-fluoro-2-methoxy-5-(3-(trifluoromethyl)phenoxy)phenyl)-5-oxopyrrolidine-2-carboxamide] | 50 to 300
21 | COc1ccc(Oc2ccc(F)cc2F)cc1NC(=O)C1CCC(=O)N1C(C)=O (stereo not drawn) [Compound 44, 1-Acetyl-N-(5-(2,4-difluorophenoxy)-2-methoxyphenyl)-5-oxopyrrolidine-2-carboxamide] | 301 to 2000
22 | COc1ccc(COc2cccc(C(F)(F)F)c2)cc1NC(=O)C1CCC(=O)N1 (stereo not drawn) [Compound 49, N-(2-Methoxy-5-((3-(trifluoromethyl)phenoxy)methyl)phenyl)-5-oxopyrrolidine-2-carboxamide] | 50 to 300
23 | COc1ccc(COc2cccc(C(F)(F)F)c2)cc1NC(=O)C1CCC(=O)N1C(C)=O (stereo not drawn) [Compound 50, 1-Acetyl-N-(2-methoxy-5-((3-(trifluoromethyl)phenoxy)methyl)phenyl)-5-oxopyrrolidine-2-carboxamide] | 301 to 2000
24 | COc1ccc(OCc2cccc(C(F)(F)F)c2)cc1NC(=O)C1CCC(=O)N1C(C)=O (stereo not drawn) [Compound 51, 1-Acetyl-N-(2-methoxy-5-((3-(trifluoromethyl)benzyl)oxy)phenyl)-5-oxo-pyrrolidine-2-carboxamide] | 301 to 2000
25 | COc1ccc(OCc2cccc(C(F)(F)F)c2)cc1NC(=O)C1CCC(=O)N1 (stereo not drawn) [Compound 52, N-(2-Methoxy-5-((3-(trifluoromethyl)benzyl)oxy)phenyl)-5-oxopyrrolidine-2-carboxamide] | 50 to 300
26 | COc1ccc(OCc2cccc(C(F)(F)F)c2)cc1NC(=O)C1CCC(=O)N1C (stereo not drawn) [Compound 53, N-(2-Methoxy-5-((3-(trifluoromethyl)benzyl)oxy)phenyl)-1-methyl-5-oxo-pyrrolidine-2-carboxamide] | 50 to 300
27 | O=C(Nc1cc(Oc2cccc(C(F)(F)F)c2)cc2c1OCCO2)C1CCS(=O)(=O)N1 (stereo not drawn) [Compound 54, N-(7-(3-(Trifluoromethyl)phenoxy)-2,3-dihydrobenzo[b][1,4]dioxin-5-yl)-isothiazolidine-3-carboxamide 1,1-dioxide] | 301 to 2000
28 | O=C1CCC(C(=O)Nc2cc(Oc3cccc(C(F)(F)F)c3)cc3c2OCCO3)N1 (stereo not drawn) [Compound 55, 5-Oxo-N-(7-(3-(trifluoromethyl)phenoxy)-2,3-dihydrobenzo[b][1,4]dioxin-5-yl)pyrrolidine-2-carboxamide] | 50 to 300
29 | CC(=O)N1C(=O)CCC1C(=O)Nc1cc(Oc2cccc(C(F)(F)F)c2)cc2c1OCCO2 (stereo not drawn) [Compound 56, 1-Acetyl-5-oxo-N-(7-(3-(trifluoromethyl)phenoxy)-2,3-dihydrobenzo[b][1,4]-dioxin-5-yl)pyrrolidine-2-carboxamide] | 50 to 300
30 | CN1C(=O)CCC1C(=O)Nc1cc(COc2cccc(F)c2)cc2c1OCCO2 (stereo not drawn) [Compound 58, N-(7-((3-Fluorophenoxy)methyl)-2,3-dihydrobenzo[b][1,4]dioxin-5-yl)-1-methyl-5-oxopyrrolidine-2-carboxamide] | 301 to 2000
31 | COc1ccc(Oc2ccc(F)c(F)c2)cc1NC(=O)C1CCC(=O)N1 (stereo not drawn) [Compound 59, N-(5-(3,4-Difluorophenoxy)-2-methoxyphenyl)-5-oxopyrrolidine-2-carboxamide] | < 50
32 | Cc1c(Oc2cccc(C(F)(F)F)c2)cc(NC(=O)C2CCC(=O)N2)c2c1OCCO2 (stereo not drawn) [Compound 61, N-(8-Methyl-7-(3-(trifluoromethyl)phenoxy)-2,3-dihydrobenzo[b][1,4]dioxin-5-yl)-5-oxopyrrolidine-2-carboxamide] | 301 to 2000
33 | COc1ccc(Oc2ccc(C(F)(F)F)nc2)cc1NC(=O)C1CCC(=O)N1 (stereo not drawn) [Compound 62, N-(2-Methoxy-5-((6-(trifluoromethyl)pyridin-3-yl)oxy)phenyl)-5-oxopyrrolidine-2-carboxamide] | 50 to 300
34 | COc1ccc(Oc2ccc(C(F)(F)F)nc2)cc1NC(=O)C1CCC(=O)N1C (stereo not drawn) [Compound 63, N-(2-Methoxy-5-((6-(trifluoromethyl)pyridin-3-yl)oxy)phenyl)-1-methyl-5-oxopyrrolidine-2-carboxamide] | 50 to 300
35 | COc1ccc(/C=C/C2CCOCC2)cc1NC(=O)C1CCC(=O)N1 (stereo not drawn) [Compound 65, (E)-N-(2-Methoxy-5-(2-(tetrahydro-2H-pyran-4-yl)vinyl)phenyl)-5-oxo-pyrrolidine-2-carboxamide] | 301 to 2000
36 | O=C1CCC(C(=O)Nc2cc(Oc3ccc(C(F)(F)F)cc3)cc3c2OCCO3)N1 (stereo not drawn) [Compound 66, 5-Oxo-N-(7-(4-(trifluoromethyl)phenoxy)-2,3-dihydrobenzo[b][1,4]dioxin-5-yl)pyrrolidine-2-carboxamide] | < 50
